One block for each molecule: values may come before it. The source made the active and inactive calls. The calls are words filed in the database; no cut-off is given here.
Assays:
[1] = biological target: T1, DNA (cytosine-5)-methyltransferase 1 (Homo sapiens, UniProt P26358); assay: Binding affinity to human DNMT1 in presence of 10 uM SAM by SPR analysis
[2] = biological target: T1, DNA (cytosine-5)-methyltransferase 1; assay: Binding affinity to human DNMT1 expressed in Escherichia coli assessed as equilibrium dissociation constant by SPR analysis
[3] = biological target: T1, DNA (cytosine-5)-methyltransferase 1; assay: Inhibition of DNMT1 (unknown origin) at 250 uM using semi-methylated DNA substrate preincubated for 15 mins followed by substrate and [3H-SAM] addition and measured after 60 mins by microbeta scintillation counting assay relative to control; settings: time 75.0 min
[4] = biological target: T1, DNA (cytosine-5)-methyltransferase 1; assay: Binding affinity to human DNMT1 expressed in Escherichia coli assessed as response unit at 10 uM by SPR analysis
A2780 [5] = assay: Antiproliferative activity against human A2780 cells incubated for 48 hrs by MTT assay; assay type: functional, cell-based; settings: A2780, 48 h
K562 [6] = assay: Antiproliferative activity against human K562 cells incubated for 48 hrs by MTT assay; assay type: functional, cell-based; settings: K562, 48 h
HeLa [7] = assay: Antiproliferative activity against human HeLa cells at 100 uM incubated for 48 hrs by MTT assay; assay type: functional
HeLa [8] = assay: Antiproliferative activity against human HeLa cells incubated for 48 hrs by MTT assay; assay type: functional, cell-based
SiHa [9] = assay: Antiproliferative activity against human SiHa cells incubated for 48 hrs by MTT assay; assay type: functional, cell-based
K562 [10] = assay: Antiproliferative activity against human K562 cells at 100 uM incubated for 48 hrs by MTT assay; assay type: functional
A2780 [11] = assay: Antiproliferative activity against human A2780 cells at 100 uM incubated for 48 hrs by MTT assay; assay type: functional
SiHa [12] = assay: Antiproliferative activity against human SiHa cells at 100 uM incubated for 48 hrs by MTT assay; assay type: functional
[13] = biological target: T1, DNA (cytosine-5)-methyltransferase 1; assay: Binding affinity to human DNMT1 expressed in Escherichia coli assessed as binding constant by SPR analysis
[14] = biological target: T1, DNA (cytosine-5)-methyltransferase 1; assay: Inhibition of DNMT1 (unknown origin) using semi-methylated DNA substrate preincubated for 15 mins followed by substrate and [3H-SAM] addition and measured after 60 mins by microbeta scintillation counting assay
K562 [15] = assay: Induction of apoptosis in human K562 cells assessed as viable cells at 60 uM incubated for 48 hrs by Annexin-V/PI staining based flow cytometry assay (reference value: 92.12%); assay type: functional; settings: read-out: Activity
K562 [16] = assay: Upregulation of TRAIL-R2/Dr5 expression in human K562 cells; assay type: functional, cell-based
K562 [17] = assay: Induction of cell cycle arrest in human K562 cells assessed as S phase cells at 20 uM incubated for 48 hrs by PI staining based flow cytometry assay (reference value: 24.10 to 26.83%); assay type: functional
K562 [18] = assay: Induction of apoptosis in human K562 cells assessed as viable cells at 40 uM incubated for 48 hrs by Annexin-V/PI staining based flow cytometry assay (reference value: 92.12%); assay type: functional; settings: read-out: Activity
K562 [19] = assay: Induction of apoptosis in human K562 cells assessed as early apoptotic cells at 20 uM incubated for 48 hrs by Annexin-V/PI staining based flow cytometry assay (reference value: 3.18%); assay type: functional
K562 [20] = assay: Induction of cell cycle arrest in human K562 cells assessed as G0-G1 phase cells at 60 uM incubated for 48 hrs by PI staining based flow cytometry assay (reference value: 33.58 to 35.82%); assay type: functional
K562 [21] = assay: Upregulation of TNFR-1 expression in human K562 cells; assay type: functional, cell-based
K562 [22] = assay: Induction of apoptosis in human K562 cells assessed as viable cells at 20 uM incubated for 48 hrs by Annexin-V/PI staining based flow cytometry assay (reference value: 92.12%); assay type: functional; settings: read-out: Activity
K562 [23] = assay: Induction of apoptosis in human K562 cells assessed as late apoptotic cells at 40 uM incubated for 48 hrs by Annexin-V/PI staining based flow cytometry assay (reference value: 3.73%); assay type: functional
K562 [24] = assay: Induction of apoptosis in human K562 cells assessed as early apoptotic cells at 40 uM incubated for 48 hrs by Annexin-V/PI staining based flow cytometry assay (reference value: 3.18%); assay type: functional
K562 [25] = assay: Induction of cell cycle arrest in human K562 cells assessed as S phase cells at 60 uM incubated for 48 hrs by PI staining based flow cytometry assay (reference value: 24.10 to 26.83%); assay type: functional
K562 [26] = assay: Induction of cell cycle arrest in human K562 cells assessed as G2/M phase cells at 20 uM incubated for 48 hrs by PI staining based flow cytometry assay (reference value: 37.35 to 45.32%); assay type: functional
K562 [27] = assay: Induction of cell cycle arrest in human K562 cells assessed as G0-G1 phase cells at 20 uM incubated for 48 hrs by PI staining based flow cytometry assay (reference value: 33.58 to 35.82%); assay type: functional
K562 [28] = assay: Induction of apoptosis in human K562 cells assessed as necrotic cells at 60 uM incubated for 48 hrs by Annexin-V/PI staining based flow cytometry assay (reference value: 0.34%); assay type: functional
K562 [29] = assay: Induction of apoptosis in human K562 cells assessed as necrotic cells at 20 uM incubated for 48 hrs by Annexin-V/PI staining based flow cytometry assay (reference value: 0.34%); assay type: functional
K562 [30] = assay: Induction of apoptosis in human K562 cells assessed as necrotic cells at 40 uM incubated for 48 hrs by Annexin-V/PI staining based flow cytometry assay (reference value: 0.34%); assay type: functional
K562 [31] = assay: Induction of cell cycle arrest in human K562 cells assessed as S phase cells at 40 uM incubated for 48 hrs by PI staining based flow cytometry assay (reference value: 24.10 to 26.83%); assay type: functional
K562 [32] = assay: Induction of apoptosis in human K562 cells assessed as late apoptotic cells at 20 uM incubated for 48 hrs by Annexin-V/PI staining based flow cytometry assay (reference value: 3.73%); assay type: functional
K562 [33] = assay: Induction of cell cycle arrest in human K562 cells assessed as G2/M phase cells at 60 uM incubated for 48 hrs by PI staining based flow cytometry assay (reference value: 37.35 to 45.32%); assay type: functional
K562 [34] = assay: Induction of apoptosis in human K562 cells assessed as late apoptotic cells at 60 uM incubated for 48 hrs by Annexin-V/PI staining based flow cytometry assay (reference value: 3.73%); assay type: functional
K562 [35] = assay: Upregulation of CDKN1A/P21 expression in human K562 cells; assay type: functional, cell-based
K562 [36] = assay: Induction of cell cycle arrest in human K562 cells assessed as G0-G1 phase cells at 40 uM incubated for 48 hrs by PI staining based flow cytometry assay (reference value: 33.58 to 35.82%); assay type: functional
K562 [37] = assay: Induction of cell cycle arrest in human K562 cells assessed as G2/M phase cells at 40 uM incubated for 48 hrs by PI staining based flow cytometry assay (reference value: 37.35 to 45.32%); assay type: functional
K562 [38] = assay: Induction of apoptosis in human K562 cells assessed as early apoptotic cells at 60 uM incubated for 48 hrs by Annexin-V/PI staining based flow cytometry assay (reference value: 3.18%); assay type: functional

T1 sequence (P26358 whole entry): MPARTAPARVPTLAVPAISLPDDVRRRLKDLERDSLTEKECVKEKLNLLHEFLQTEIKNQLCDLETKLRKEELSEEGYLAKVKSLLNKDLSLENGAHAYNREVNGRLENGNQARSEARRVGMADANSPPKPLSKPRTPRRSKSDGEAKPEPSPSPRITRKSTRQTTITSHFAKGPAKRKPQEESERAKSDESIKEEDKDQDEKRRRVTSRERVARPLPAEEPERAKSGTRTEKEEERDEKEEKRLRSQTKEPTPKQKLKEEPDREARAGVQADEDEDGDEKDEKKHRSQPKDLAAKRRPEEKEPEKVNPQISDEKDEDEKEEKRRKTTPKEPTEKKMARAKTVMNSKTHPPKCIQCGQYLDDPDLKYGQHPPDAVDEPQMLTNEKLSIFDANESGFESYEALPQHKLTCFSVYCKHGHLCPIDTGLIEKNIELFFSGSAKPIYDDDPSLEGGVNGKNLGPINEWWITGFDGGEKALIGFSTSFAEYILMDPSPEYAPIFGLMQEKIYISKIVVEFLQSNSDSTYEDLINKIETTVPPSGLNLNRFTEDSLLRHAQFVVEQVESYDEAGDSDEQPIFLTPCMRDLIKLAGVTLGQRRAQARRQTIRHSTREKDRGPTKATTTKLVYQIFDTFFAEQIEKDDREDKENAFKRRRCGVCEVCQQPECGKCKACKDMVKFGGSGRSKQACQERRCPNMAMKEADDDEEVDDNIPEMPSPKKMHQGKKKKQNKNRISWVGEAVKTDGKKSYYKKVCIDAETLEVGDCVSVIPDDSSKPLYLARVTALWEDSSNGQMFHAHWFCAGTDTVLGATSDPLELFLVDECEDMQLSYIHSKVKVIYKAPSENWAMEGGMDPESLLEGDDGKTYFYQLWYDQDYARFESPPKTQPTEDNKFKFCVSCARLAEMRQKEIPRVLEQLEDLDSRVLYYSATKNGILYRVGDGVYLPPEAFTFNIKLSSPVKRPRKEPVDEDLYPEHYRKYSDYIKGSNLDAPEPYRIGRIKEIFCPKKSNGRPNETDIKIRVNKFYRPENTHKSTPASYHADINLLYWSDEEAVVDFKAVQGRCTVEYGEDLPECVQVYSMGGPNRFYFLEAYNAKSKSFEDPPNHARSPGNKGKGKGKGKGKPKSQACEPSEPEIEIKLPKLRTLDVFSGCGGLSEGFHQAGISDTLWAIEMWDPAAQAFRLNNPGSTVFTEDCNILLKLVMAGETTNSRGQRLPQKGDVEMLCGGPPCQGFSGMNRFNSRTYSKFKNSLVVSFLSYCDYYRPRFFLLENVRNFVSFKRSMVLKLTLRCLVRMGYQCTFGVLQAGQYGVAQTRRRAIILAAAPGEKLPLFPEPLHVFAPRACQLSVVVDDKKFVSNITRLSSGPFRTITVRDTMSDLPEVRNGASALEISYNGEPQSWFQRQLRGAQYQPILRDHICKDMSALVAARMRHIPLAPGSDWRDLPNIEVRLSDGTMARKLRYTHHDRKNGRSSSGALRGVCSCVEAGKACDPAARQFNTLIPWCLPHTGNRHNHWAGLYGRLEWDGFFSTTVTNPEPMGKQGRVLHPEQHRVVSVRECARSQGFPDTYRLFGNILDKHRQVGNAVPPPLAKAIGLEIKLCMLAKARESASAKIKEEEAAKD

Kd [1]: 4.09 µM | Kd [2]: 1.16 µM
SMILES: O=C(O)C(Cn1c2ccc(Br)cc2c2cc(Br)ccc21)N1C(=O)c2ccccc2C1=O (racemic) [listing 1 of 2 here]

inhibition [3]: > 75% | Activity [4]: Active
SMILES: O=C(O)C(Cn1c2ccc(Cl)cc2c2cc(Cl)ccc21)N1C(=O)c2ccccc2C1=O (racemic)

IC50 (A2780 [5]): 36.6 µM | inhibition [3]: > 75% | Activity [4]: 52.7 RU | IC50 (K562 [6]): 22.5 µM | IC50 (HeLa [8]): 60.5 µM | Kd [2]: 0.841 µM
SMILES: CC(C)(C)c1ccc2c(c1)c1cc(C(C)(C)C)ccc1n2CC(C(=O)O)N1C(=O)c2ccccc2C1=O (racemic)
Activity (HeLa [7]): 79% | IC50 (SiHa [9]): 43.3 µM | Activity (K562 [10]): 99% | Activity (A2780 [11]): 98%

inhibition [3]: > 75% | Activity [4]: Active
SMILES: O=C(O)C(Cn1c2cc(Br)ccc2c2ccc(Br)cc21)N1C(=O)c2ccccc2C1=O (racemic)

inhibition [3]: < 50%
SMILES: O=C(O)C(Cn1c2ccccc2c2cc(I)ccc21)N1C(=O)c2ccccc2C1=O (racemic)
Activity (HeLa [7]): <5% | Activity (K562 [10]): <5% | Activity (A2780 [11]): <5% | Activity (SiHa [12]): <5%

Ka [13]: 34000 M⁻¹ s⁻¹ | inhibition [3]: > 75% | Activity [4]: Active
SMILES: O=C(O)C(Cn1c2ccc(Br)cc2c2cc(Br)ccc21)N1C(=O)c2ccccc2C1=O (racemic) [listing 2 of 2 here]

inhibition [3]: < 50%
SMILES: O=C(O)C(Cn1c2ccccc2c2cc(OCC3CO3)ccc21)N1C(=O)c2ccccc2C1=O (racemic)
Activity (HeLa [7]): <5% | Activity (K562 [10]): <5% | Activity (A2780 [11]): <5% | Activity (SiHa [12]): <5%

IC50 [14]: 0.777 µM | IC50 (A2780 [5]): 68.6 µM | IC50 (K562 [6]): 44.4 µM | IC50 (HeLa [8]): 89 µM | Kd [2]: 0.127 µM
SMILES: O=C(O)[C@@H](Cn1c2ccc(Cl)cc2c2cc(Cl)cc(Cl)c21)N1C(=O)c2ccccc2C1=O
IC50 (SiHa [9]): 83.2 µM

IC50 [14]: 40 µM | IC50 (A2780 [5]): 78.9 µM | IC50 (K562 [6]): 43.9 µM | IC50 (HeLa [8]): 96.8 µM | Kd [2]: 0.183 µM
SMILES: O=C(O)[C@H](Cn1c2ccc(Cl)cc2c2cc(Cl)cc(Cl)c21)N1C(=O)c2ccccc2C1=O
viability at 60 µM (K562 [15]): 16.7% | Activity (K562 [16]): Active | Activity (K562 [17]): 24.1% | viability at 40 µM (K562 [18]): 93.7% | Activity (K562 [19]): 3.9% | Activity (K562 [20]): 61.74% | Activity (K562 [21]): Active | viability at 20 µM (K562 [22]): 92.9% | Activity (K562 [23]): 4.25% | Activity (K562 [24]): 1.75% | Activity (K562 [25]): 17.4% | Activity (K562 [26]): 33% | IC50 (SiHa [9]): 58.6 µM | Activity (K562 [27]): 35.18% | Activity (K562 [28]): 1.74% | Activity (K562 [29]): 0.04% | Activity (K562 [30]): 0.29% | Activity (K562 [31]): 21.62% | Activity (K562 [32]): 3.16% | Activity (K562 [33]): 20.78% | Activity (K562 [34]): 27.24% | Activity (K562 [35]): Active | Activity (K562 [36]): 50.95% | Activity (K562 [37]): 27.43% | Activity (K562 [38]): 4.28%

Source: ChEMBL document CHEMBL5579818, “Identification of 3-(9H-carbazol-9-yl)-2-(1,3-dioxoisoindolin-2-yl)propanoic acids as promising DNMT1 inhibitors” (Eur J Med Chem, 2024)
